Values of other authors, collected in patent publication US20240238194A1, “ORODISPERSIBLE EFFERVESCENT TABLET COMPRISING BUDESONIDE FOR USE IN THE TREATMENT OF EOSINOPHILIC ESOPHAGITIS” (Dr. Falk Pharma GmbH, priority 2021, published 2024).

Details: in vivo

Substance: budesonide [OVB]
- mucosal medication contact time, measured by scintigraphy: higher
